Experimental data from patent US20230304058A1, “NOVEL 5'CAP ANALOG HAVING CAP2 STRUCTURE AND PREPARATION METHOD THEREFOR” (Shenzhen Rhegen Biotechnology Co., Ltd., priority 2020, published 2023).

Tests used:
mRNA = mRNA capping rate by RNase H cleavage and LC-MS; type: biochemical; conditions: ratio of capped and uncapped mRNA
Description: The mRNA molecules with different Cap structures obtained in Example 1 were subjected to enzymatic cleavage, and the ratio of capped and uncapped mRNA molecules could be determined in a liquid chromatography-mass spectrometry analysis experiment.
1. Concentrate the beads using a magnet, aspirate the supernatant storage solution, and add an equal volume of 0.1 M NaOH +0.05 M NaCl;
2. Aspirate the supernatant and resuspend the beads with an equal volume of 0.1 M NaCl, keep the concentration constant;
3. Anneal mRNA and cleavage tags, configure the following reaction system;
Gradient annealing: 95° C. 5 min
4. Combining cleavage tags with beads • Beads were centrifuged at 15,000 g for 5 min, and the supernatant was removed, then 120 μl of annealed mRNA and tags were added and incubated for 30 min at room temperature, during which time they were gently shaken to ensure adequate binding.
5. Enzyme cleavage using RNase H; • Add 10 μl RNase H and incubate at 37° C. for 3 h. Precipitate the beads with magnet and discard the supernatant. • Add 100 μl washing buffer, mix thoroughly, magnet precipitate for 2 min, and discard the supernatant. Repeat 3 times. • Wash with DI water for 3 times.
6. Hydrolysis with RppH; • Use 10 units RppH in nebuffer 2 to hydrolyze at room temperature for 1 h.
DI water was aspirated, 100 μl of 75% ethanol preheated to 80° C. was added, incubat for 3 min, and magnet precipitat for 3 min. The supernatant was taken, followed by evaporating, and centrifuge for 45 min to a volume of 10 μl. Finally, the sample was resuspended in 50 μl of […] EDTA/1% MeOH and left for LC-MS analysis.
9. the mRNA capping rate of different Cap analogs synthesized was analyzed with LC-MS.

[1] = test system: TLR3, TLR7, TLR8 and RIG-1; assay: Intracellular immunogenicity of capped mRNA by RNA immunoprecipitation and quantitative PCR; type: cell-based; conditions: relative to ARCA; Human-derived PBMC cells, 5 μg mRNA, Lipofectamine 2000, 24 h
Method: Experimental methods: the intracellular immunoproteins TLR3, TLR7, TLR8 and RIG-1 were immunoprecipitated together with their bound RNAs by RNA immunoprecipitation, and finally these mRNAs were identified by real-time quantitative PCR, and their relative abundance was proportional to their immunogenicity.
The cells were collected by trypsin digestion 24 h later and resuspended in PBS, centrifuged, and collected.
Fixative was added to the cells, and after 15 minutes glycine was added for termination of fixation, followed by centrifugation to collect the cells. Cells were resuspended by adding lysate, incubated on ice at 4° C. for 30 min, centrifuged at 2400 g for 10 min, and the supernatant was collected.
TLR3, TLR7, TLR8 and RIG-1 antibodies (2-10 μg) were added to the supernatant (6-10 mg) followed by gentle incubation at 4° C. for 2 hours. Protein AIG beads (40 μL) were then added to them and incubated gently for 1 h at 4° C.
Centrifuge at 2500 rpm for 30 seconds with precipitated magnetic beads and remove the supernatant. Resuspend the beads in 500 μL of RIP buffer. Wash in RIP buffer a total of three times, followed by one wash in PBS.
Resuspend magnetic beads in TRIzol RNA Extraction Reagent (1 mL) and isolate co-precipitated RNA, and then elute RNA using nuclease-free water (20 μL).
6. Reverse transcribe (RT) the RNA into cDNA and design primers according to the mRNA sequence for quantitative PCR analysis. mRNA immunogenicity is proportional to the number of mRNA copies precipitated by magnetic beads.

T7 Enzyme Mix = T7 Enzyme Mix (Escherichia phage T7, UniProt P00573); assay: In vitro transcription mRNA synthesis with cap analog, reaction yield; type: biochemical; conditions: per ml transcription reaction system; 37° C. for 6 h; LiCl purification
Sequence of T7 Enzyme Mix (P00573 whole entry): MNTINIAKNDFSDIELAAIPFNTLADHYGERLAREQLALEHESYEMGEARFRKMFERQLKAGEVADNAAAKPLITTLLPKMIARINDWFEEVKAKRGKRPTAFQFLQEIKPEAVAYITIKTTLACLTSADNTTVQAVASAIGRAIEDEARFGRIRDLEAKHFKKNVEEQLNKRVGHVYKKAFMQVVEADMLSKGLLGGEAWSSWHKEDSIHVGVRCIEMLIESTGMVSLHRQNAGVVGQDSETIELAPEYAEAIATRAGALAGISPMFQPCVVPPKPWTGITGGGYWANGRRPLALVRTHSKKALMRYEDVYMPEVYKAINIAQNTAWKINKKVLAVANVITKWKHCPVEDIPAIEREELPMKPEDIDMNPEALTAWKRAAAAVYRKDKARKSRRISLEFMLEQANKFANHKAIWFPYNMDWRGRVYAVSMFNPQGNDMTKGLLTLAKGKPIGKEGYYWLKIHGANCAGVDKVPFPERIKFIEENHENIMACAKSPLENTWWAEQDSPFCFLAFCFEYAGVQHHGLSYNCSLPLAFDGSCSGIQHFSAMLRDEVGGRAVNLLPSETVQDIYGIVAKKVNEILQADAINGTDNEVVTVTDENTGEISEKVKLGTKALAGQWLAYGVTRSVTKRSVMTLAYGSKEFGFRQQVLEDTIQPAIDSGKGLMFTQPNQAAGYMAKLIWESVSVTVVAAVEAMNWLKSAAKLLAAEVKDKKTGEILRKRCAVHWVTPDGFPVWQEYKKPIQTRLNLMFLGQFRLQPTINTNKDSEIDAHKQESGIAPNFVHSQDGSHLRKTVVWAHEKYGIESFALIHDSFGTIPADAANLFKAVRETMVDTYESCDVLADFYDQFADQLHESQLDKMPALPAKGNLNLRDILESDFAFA
Method: 1. Before synthesizing mRNA, linearize the plasmid with Notl, digested at […] overnight;
2. Extract with DNA template;
React at 37° C. for 6 h. Digest with TURBO DNase for 15 min.
4. Purify the transcription products using LiCl solution and calculate the reaction yields.

SMILES | mRNA capping rates when using different Cap structures (mRNA) [%] | Intracellular immunogenicity of mRNA when using different Cap structures [1] | Mass of final product obtained from 1 ml mRNA synthesis reaction system (T7 Enzyme Mix) [mg]
CO[C@@H]1[C@H](O)[C@@H](COP(=O)(O)O[C@H]2[C@@H](OC)[C@H](n3cnc4c(N)ncnc43)O[C@@H]2COP(=O)(O)OP(=O)(O)OP(=O)([O-])OC[C@H]2O[C@@H](n3c[n+](C)c4c(=O)[nH]c(N)nc43)[C@H](O)[C@@H]2O)O[C@H]1n1cnc2c(=O)[nH]c(N)nc21 [Cap analog 1, m7G(5′)ppp(5′)(2′OMeA)p(2′OMeG)] | 94.91 | 0.40 | 4.5
CO[C@@H]1[C@H](O)[C@@H](COP(=O)(O)O[C@H]2[C@@H](OC)[C@H](n3cnc4c(=O)[nH]c(N)nc43)O[C@@H]2COP(=O)(O)OP(=O)(O)OP(=O)([O-])OC[C@H]2O[C@@H](n3c[n+](C)c4c(=O)[nH]c(N)nc43)[C@H](O)[C@@H]2O)O[C@H]1n1cnc2c(=O)[nH]c(N)nc21 [Cap analog 2, m7G(5′)ppp(5′)(2′OMeG)p(2′OMeG)] | 95.1 | 0.37 | 4.9
CO[C@@H]1[C@H](OP(=O)(O)OC[C@H]2O[C@@H](n3cnc4c(=O)[nH]c(N)nc43)[C@H](OC)[C@@H]2O)[C@@H](COP(=O)(O)OP(=O)(O)OP(=O)([O-])OC[C@H]2O[C@@H](n3c[n+](C)c4c(=O)[nH]c(N)nc43)[C@H](O)[C@@H]2O)O[C@H]1n1ccc(N)nc1=O [Cap analog 3, m7G(5′)ppp(5′)(2′OMeC)p(2′OMeG)] | 94.82 | 0.28 | 5.8
CO[C@@H]1[C@H](OP(=O)(O)OC[C@H]2O[C@@H](n3cnc4c(=O)[nH]c(N)nc43)[C@H](OC)[C@@H]2O)[C@@H](COP(=O)(O)OP(=O)(O)OP(=O)([O-])OC[C@H]2O[C@@H](n3c[n+](C)c4c(=O)[nH]c(N)nc43)[C@H](O)[C@@H]2O)O[C@H]1n1ccc(=O)[nH]c1=O [Cap analog 4, m7G(5′)ppp(5′)(2′OMeU)p(2′OMeG)] | 94.72 | 0.48 | 4.7
CO[C@@H]1[C@H](O)[C@@H](COP(=O)(O)O[C@H]2[C@@H](OC)[C@H](n3cnc4c(N)ncnc43)O[C@@H]2COP(=O)(O)OP(=O)(O)OP(=O)([O-])OC[C@H]2O[C@@H](n3c[n+](C)c4c(=O)[nH]c(N)nc43)[C@H](O)[C@@H]2O)O[C@H]1n1cnc2c(N)ncnc21 [Cap analog 5, m7G(5′)ppp(5′)(2′OMeA)p(2′OMeA)] | 94.88 | 0.52 | 4.4
CO[C@@H]1[C@H](O)[C@@H](COP(=O)(O)O[C@H]2[C@@H](OC)[C@H](n3cnc4c(=O)[nH]c(N)nc43)O[C@@H]2COP(=O)(O)OP(=O)(O)OP(=O)([O-])OC[C@H]2O[C@@H](n3c[n+](C)c4c(=O)[nH]c(N)nc43)[C@H](O)[C@@H]2O)O[C@H]1n1cnc2c(N)ncnc21 [Cap analog 6, m7G(5′)ppp(5′)(2′OMeG)p(2′OMeA)] | 94.65 | 0.38 | 5.1
CO[C@@H]1[C@H](OP(=O)(O)OC[C@H]2O[C@@H](n3cnc4c(N)ncnc43)[C@H](OC)[C@@H]2O)[C@@H](COP(=O)(O)OP(=O)(O)OP(=O)([O-])OC[C@H]2O[C@@H](n3c[n+](C)c4c(=O)[nH]c(N)nc43)[C@H](O)[C@@H]2O)O[C@H]1n1ccc(N)nc1=O [Cap analog 7, m7G(5′)ppp(5′)(2′OMeC)p(2′OMeA)] | 94.76 | 0.24 | 5.3
CO[C@@H]1[C@H](OP(=O)(O)OC[C@H]2O[C@@H](n3cnc4c(N)ncnc43)[C@H](OC)[C@@H]2O)[C@@H](COP(=O)(O)OP(=O)(O)OP(=O)([O-])OC[C@H]2O[C@@H](n3c[n+](C)c4c(=O)[nH]c(N)nc43)[C@H](O)[C@@H]2O)O[C@H]1n1ccc(=O)[nH]c1=O [Cap analog 8, m7G(5′)ppp(5′)(2′OMeU)p(2′OMeA)] | 94.79 | 0.31 | 5.3
CO[C@@H]1[C@H](O)[C@@H](COP(=O)(O)O[C@H]2[C@@H](OC)[C@H](n3cnc4c(N)ncnc43)O[C@@H]2COP(=O)(O)OP(=O)(O)OP(=O)([O-])OC[C@H]2O[C@@H](n3c[n+](C)c4c(=O)[nH]c(N)nc43)[C@H](O)[C@@H]2O)O[C@H]1n1ccc(N)nc1=O [Cap analog 9, m7G(5′)ppp(5′)(2′OMeA)p(2′OMeC)] | 94.73 | 0.4 | 4.8
CO[C@@H]1[C@H](O)[C@@H](COP(=O)(O)O[C@H]2[C@@H](OC)[C@H](n3cnc4c(=O)[nH]c(N)nc43)O[C@@H]2COP(=O)(O)OP(=O)(O)OP(=O)([O-])OC[C@H]2O[C@@H](n3c[n+](C)c4c(=O)[nH]c(N)nc43)[C@H](O)[C@@H]2O)O[C@H]1n1ccc(N)nc1=O [Cap analog 10, m7G(5′)ppp(5′)(2′OMeG)p(2′OMeC)] | 94.93 | 0.18 | 6.0
CO[C@@H]1[C@H](O)[C@@H](COP(=O)(O)O[C@H]2[C@@H](OC)[C@H](n3ccc(N)nc3=O)O[C@@H]2COP(=O)(O)OP(=O)(O)OP(=O)([O-])OC[C@H]2O[C@@H](n3c[n+](C)c4c(=O)[nH]c(N)nc43)[C@H](O)[C@@H]2O)O[C@H]1n1ccc(N)nc1=O [Cap analog 11, m7G(5′)ppp(5′)(2′OMeC)p(2′OMeC)] | 95.2 | 0.31 | 4.7
CO[C@@H]1[C@H](O)[C@@H](COP(=O)(O)O[C@H]2[C@@H](OC)[C@H](n3ccc(=O)[nH]c3=O)O[C@@H]2COP(=O)(O)OP(=O)(O)OP(=O)([O-])OC[C@H]2O[C@@H](n3c[n+](C)c4c(=O)[nH]c(N)nc43)[C@H](O)[C@@H]2O)O[C@H]1n1ccc(N)nc1=O [Cap analog 12, m7G(5′)ppp(5′)(2′OMeU)p(2′OMeC)] | 94.86 | 0.19 | 4.9
